Experimental data from paper PMC10140934, “In Vitro and In Silico Studies on Angiotensin I-Converting Enzyme Inhibitory Peptides Found in Hydrophobic Domains of Porcine Elastin” (Molecules, 2023).
pIC50: −log10 of the molar value. Residues, ends and D or L forms follow the SMILES beside them. No end group written: not given here.

molecular target: T1, ACE (from rabbit lung) (Oryctolagus cuniculus, UniProt P12822); test: Assay of ACE inhibitory activity (HHL substrate, o-phthalaldehyde fluorescence); assay type: biochemical; details: pH 8.3, 37 °C, n = 3
T1 construct: ACE (20 mU/mL, from rabbit lung) was used for the enzyme solution; from tissue; host or cells: rabbit lung
T1 sequence (P12822 34-1310): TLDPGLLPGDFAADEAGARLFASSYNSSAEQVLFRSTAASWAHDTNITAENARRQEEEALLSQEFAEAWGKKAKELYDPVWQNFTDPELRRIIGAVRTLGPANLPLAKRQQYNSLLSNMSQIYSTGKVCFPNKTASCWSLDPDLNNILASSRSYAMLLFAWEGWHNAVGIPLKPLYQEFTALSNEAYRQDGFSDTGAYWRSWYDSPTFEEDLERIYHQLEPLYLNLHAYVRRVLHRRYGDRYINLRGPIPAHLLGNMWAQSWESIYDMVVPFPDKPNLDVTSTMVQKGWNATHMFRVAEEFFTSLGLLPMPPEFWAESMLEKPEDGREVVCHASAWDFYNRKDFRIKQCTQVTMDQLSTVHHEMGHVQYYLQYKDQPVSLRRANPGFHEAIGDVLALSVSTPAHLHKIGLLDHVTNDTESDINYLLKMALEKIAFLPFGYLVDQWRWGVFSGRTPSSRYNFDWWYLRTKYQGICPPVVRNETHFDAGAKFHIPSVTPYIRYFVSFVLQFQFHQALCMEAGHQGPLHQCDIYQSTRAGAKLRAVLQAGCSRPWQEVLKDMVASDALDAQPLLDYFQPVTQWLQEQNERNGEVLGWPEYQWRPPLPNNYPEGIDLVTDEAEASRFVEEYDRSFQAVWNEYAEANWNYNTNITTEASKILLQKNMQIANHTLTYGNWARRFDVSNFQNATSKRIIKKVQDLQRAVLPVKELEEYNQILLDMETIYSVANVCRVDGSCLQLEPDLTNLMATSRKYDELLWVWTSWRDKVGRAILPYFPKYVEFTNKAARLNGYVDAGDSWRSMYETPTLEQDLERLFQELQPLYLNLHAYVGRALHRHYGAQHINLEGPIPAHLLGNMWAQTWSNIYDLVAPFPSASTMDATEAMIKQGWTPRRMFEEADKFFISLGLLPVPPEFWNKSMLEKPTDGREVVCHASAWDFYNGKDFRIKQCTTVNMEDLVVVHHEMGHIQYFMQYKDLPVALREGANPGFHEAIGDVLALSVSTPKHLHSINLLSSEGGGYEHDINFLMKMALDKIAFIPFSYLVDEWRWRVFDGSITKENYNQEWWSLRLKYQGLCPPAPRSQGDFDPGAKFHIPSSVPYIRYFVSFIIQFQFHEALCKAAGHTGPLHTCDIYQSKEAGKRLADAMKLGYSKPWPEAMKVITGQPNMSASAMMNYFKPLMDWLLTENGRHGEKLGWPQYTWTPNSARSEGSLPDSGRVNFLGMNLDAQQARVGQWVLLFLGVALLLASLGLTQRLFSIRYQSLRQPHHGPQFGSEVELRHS
Protocol: The ACE inhibitory activity of newly synthesized peptides was measured under the following condition by using Nakano et al.’s method. ACE (20 mU/mL, from rabbit lung) was used for the enzyme solution and 100 mM hippuryl-histidyl-leucine (HHL) was used for the substrate solution. Each solution was prepared in 0.1 M HEPES buffer (pH 8.3, 0.3 M NaCl, 0.01% Triton-X). Both enzyme solution (25 μL) and sample solution (20 μL) were preincubated at 37 °C for 5 min. A total of 100 mM HHL substrate solution (25 μL) was added and incubated at 37 °C for 30 min. The reaction was stopped by the addition of 100 mM NaOH solution (25 μL), followed by the addition of 1% o-phthalaldehyde in methanol (25 μL) and maintained at room temperature for 20 min. Next, 100 mM HCl (25 μL) was added and further maintained at room temperature for 10 min. The amount of His-Leu cleaved from the substrate by ACE was determined by measuring the fluorescence intensity of the product reacted with o-phthalaldehyde (excitation wavelength 370 nm, emission wavelength 460 nm) in a microplate reader. ACE inhibitory activity was calculated by the following formula:a ACE inhibitory activity (%) = [1 − (a − c)/(b − d)] × 100(1) where a is the fluorescence intensity in the presence of both ACE and the inhibitor, b is the fluorescence intensity in the presence of ACE without the inhibitor, c is the fluorescence intensity in the presence of the inhibitor without ACE, and d is the fluorescence intensity in the absence of both ACE and the inhibitor. ACE inhibitory activity was expressed by IC50 value: the concentration of inhibition required to inhibit 50% of the ACE activity, and each IC50 value was measured three times.

| pIC50 | Molecule |
| --- | --- |
| 3.64 | C[C@H](N)C(=O)N1CCC[C@H]1C(=O)O [AP] (H-Ala-Pro-OH) |
| 4.46 | C[C@H](NC(=O)CN)C(=O)N1CCC[C@H]1C(=O)O [GAP] (H-Gly-Ala-Pro-OH) |
| 3.31 | CC(C)C[C@H](NC(=O)CN)C(=O)NCC(=O)O [GLG] (H-Gly-Leu-Gly-OH) |
| 3.43 | CC(C)[C@H](NC(=O)CN)C(=O)NCC(=O)O [GVG] (H-Gly-Val-Gly-OH) |
| 5.89 | C[C@@H](O)[C@H](N)C(=O)N[C@@H](CCCNC(=N)N)C(=O)N1CCC[C@H]1C(=O)O [TRP] (H-Thr-Arg-Pro-OH) |
| 6.00 | CC(C)[C@H](N)C(=O)N[C@@H](C)C(=O)N1CCC[C@H]1C(=O)O [VAP] (H-Val-Ala-Pro-OH) |
| 3.49 | CC(C)[C@H](N)C(=O)N[C@@H](C)C(=O)O [VA] (H-Val-Ala-OH) |
| 4.98 | CC(C)[C@H](N)C(=O)N[C@@H](CO)C(=O)N1CCC[C@H]1C(=O)O [VSP] (H-Val-Ser-Pro-OH) |
| 3.04 | VAPGVG [VAPGVG] |
